{"source": "patent US20090082260A1", "about": "“COMBINATION OF AN IMMUNOSUPPRESSANT AND A PPAR GAMMA AGONIST FOR THE TREATMENT OF AN UNDESIRABLE IMMUNE RESPONSE” (priority 2005, published 2009)", "tested_on": "cardiac allograft", "assay": "Cardiac allograft rejection in rats: long term graft survival", "format": "in vivo, rat", "settings": "for Mean Survival Time, extended data set: Table 10b", "method": "Animals were obtained from the Animal Resources Centre, Australia. The rats were allowed free access to food and water in a 12-hour light/12-hour dark cycled room. The experimental protocol was approved by the Committee on the Use of Live Animals in Teaching and Research, University of Hong Kong.\nSix rats were used in each treatment group.\nRecipient rats in TGA received hearts harvested from donor […] strain rats.\nGraft survival was analysed using a chi-squared test.\nExample 3 was extended to include a number of alternative treatment groups and additional numbers of animals in certain of the treatment groups already investigated.\nTable 10b below summarises the graft survival rates, including both the original and supplemental data.", "data": [{"compound": "CN(CCOc1ccc(CC2SC(=O)NC2=O)cc1)c1ccccn1", "note": "(centres unmarked) [rosiglitazone, 5-[4-[2-(N-methyl-N-(2-pyridyl)amino)ethoxy]benzyl]thiazolidine-2,4-dione]", "values": [{"measurement": "Graft survival compared with untreated subjects (TGE)", "setting": "PPAR-gamma agonist alone at a high dose (TGF, 20 mg/kg/day)", "result": "does not show any notable difference"}, {"measurement": "Graft survival compared with untreated subjects (TGE)", "setting": "PPAR-gamma agonist alone at a medium dose (TGB, 5 mg/kg/day)", "result": "does not show any notable difference"}, {"measurement": "Mean Survival Time", "setting": "Table 10, TGA cyclosporin A 20 mg/kg/day i.p. 14 days, TGB rosiglitazone 5 mg/kg/day oral to day 120, TGC both, n=6", "result": 15.8, "unit": "days"}, {"measurement": "Mean Survival Time, extended data set", "setting": "TGA cyclosporin A 20 mg/kg/day i.p. 14 days, TGB rosiglitazone 5 mg/kg/day oral, TGC both", "result": 15.8, "unit": "days"}, {"measurement": "Mean Survival Time, extended data set", "setting": "TGF high dose rosiglitazone 20 mg/kg/day oral only, n=6", "result": 18.8, "unit": "days"}]}]}
